Measured values as given in publication PMC10206061, “Suxiao Jiuxin Pill attenuates acute myocardial ischemia via regulation of coronary artery tone” (Frontiers in Pharmacology, 2023).
Where two headings read alike, the source gives them in different places.

Target: T1, Akt1 (Homo sapiens, UniProt P31749)
T1 construct: recombinant human Akt1 protein (1775-KS-010, Bio-Techne)
Test: SPR (Biacore T200, Akt1 amine-coupled on CM5 chip, […] steady-state fit)
Format: binding

T1 sequence (P31749 whole entry): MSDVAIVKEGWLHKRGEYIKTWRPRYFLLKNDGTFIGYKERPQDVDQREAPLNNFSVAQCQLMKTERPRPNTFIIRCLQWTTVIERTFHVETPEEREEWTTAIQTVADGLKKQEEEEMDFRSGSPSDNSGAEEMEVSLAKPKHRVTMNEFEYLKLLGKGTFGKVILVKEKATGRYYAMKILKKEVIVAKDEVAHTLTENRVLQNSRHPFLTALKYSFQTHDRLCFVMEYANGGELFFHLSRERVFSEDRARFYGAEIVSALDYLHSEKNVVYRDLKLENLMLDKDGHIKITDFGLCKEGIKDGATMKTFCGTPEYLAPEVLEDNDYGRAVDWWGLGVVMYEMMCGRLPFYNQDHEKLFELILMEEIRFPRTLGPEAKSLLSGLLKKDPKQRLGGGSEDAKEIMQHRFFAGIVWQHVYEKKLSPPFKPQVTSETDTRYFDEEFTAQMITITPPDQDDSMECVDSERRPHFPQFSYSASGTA

| Compound | Kd (read-out: Kd) | Kd |
| --- | --- | --- |
| COc1cc2ccc(=O)oc2cc1O [scopoletin] | 11.1 µM | – |
| CCCC[C@@H]1OC(=O)C2=C1CCC=C2 [senkyunolide A] | – | 752 µM |
